In patent US6376670B1, “Quinoline-indole antimicrobial agents, uses and compositions related thereto” (Sepracor Inc., priority 1997, dated 2002):
Where two headings read alike, the source gives them in different places.

Tests used:
Assay type in all cases: cell-based
[1] = test system: methicillin-resistant Staphylococcus aureus (MRSA); experiment: Determination of MIC values (BHI broth, 96 well microtiter plate); details: Staphylococcus aureus, MRSA, 16 h, BHI broth, 37° C., read-out: MIC MRSA
How it was run: (§1)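 Broth microdilution in Brain-Heart Infusion with twofold dilution series from 25 µg/mL final and a no-compound control. Overnight incubation at 37° C in a CO2 atmosphere; visual growth endpoint gives the MIC.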

[2] = test system: vancomycin-resistant Enterococcus spp. (VRE); experiment: as above; details: Enterococcus, VRE, 16 h, BHI broth, 37° C., read-out: MIC VREF
How it was run: as §1

[3] = test system: Streptococcus pneumoniae; experiment: as above; details: Streptococcus pneumoniae, BHI broth, 37° C., read-out: MIC S. pneu
How it was run: as §1

[4] = test system: S. aureus (ATCC 33592); experiment: MIC against S. aureus strain; details: Staphylococcus aureus, ATCC33592
Description: (§2) Stock solutions of compounds are prepared with a concentration of 10 mg/mL. These solutions are then diluted 1:4 to give a concentration of 2.5 mg/mL. The compounds are then serially diluted 1:2 for 6 iterations. The concentrations made for each compound are 2.5, 1.25, 0.625, 0.3125, 0.156, 0.078, and 0.039 mg/mL. A control sample (no compound) is run along with each compound tested. All dilutions are made in DMSO.
(§3) All wells of a 96 well microtiter plate are filled with 100 μL of BHI (Brain-Heart Infusion) broth. Columns on the plate are labeled 1-12, and rows are labeled A-H. Each column of wells is used to test one series of diluted compounds. Into each well of 100 μL of BHI broth, 1 μL of diluted compound is placed for a 1:100 dilution. This makes the final concentration of each drug series 25, 12.5, 6.25, 3.125, 1.56, 0.78, 0.39, and 0 μg/mL.
(§4) Test Organism: A sterile 15 mL screw cap tube is filled wth 3 mL of BHI broth. Next, 2-3 colonies of test organism are inoculated into the tube. The tube is then incubated at 37° C. in a CO2 (approx. 7%) atmosphere jar. The organisms are allowed to grow to the density of a 0.5 McFarland standard (10^8 cells/mL). The organism is then inoculated into each well of the microtiter plate containing the diluted compounds to be tested for MIC. The inoculum is 1 μL in volume and represents 10^5 to 10^6 cells/mL.
(§5) After inoculation the plates are covered and incubated at 37° C. and approx. 7-10% CO2 atmosphere overnight (about 16 hours). The plates are then observed for growth, the well with the lowest concentration of drug and no observable growth represents the well determining the MIC.

[5] = test system: S. aureus (ATCC 25923); experiment: MIC against S. aureus strain; details: Staphylococcus aureus, ATCC25923
Description: as §2, §3, §4, §5

[6] = test system: S. aureus (ATCC 29213); experiment: MIC against S. aureus strain; details: Staphylococcus aureus, ATCC29213
Description: as §2, §3, §4, §5

[7] = test system: S. aureus (ATCC 33591); experiment: MIC against S. aureus strain; details: Staphylococcus aureus, ATCC33591
Description: as §2, §3, §4, §5

MIC ([1]; about 16 hours) [µg/mL]	MIC ([2]; about 16 hours) [µg/mL]	MIC ([3]; about 16 hours) [µg/mL]	MIC [4] [µg/mL]	MIC [5] [µg/mL]	MIC [6] [µg/mL]	MIC [7] [µg/mL]	MIC ([1]; overnight (about 16 hours)) [µg/mL]	MIC ([2]; overnight (about 16 hours)) [µg/mL]	MIC ([3]; overnight (about 16 hours)) [µg/mL]	SMILES
< 7	< 7	< 7								NCCNC(=O)c1cc(-c2c[nH]c3ccc(Br)cc23)nc2cc(Cl)c(C#CCN3CCSCC3)cc12 [Example 528]
< 7	< 7	< 7								NCC(O)CNC(=O)c1cc(-c2c[nH]c3ccc(Br)cc23)nc2ccc(C#CCN3CCCCC3)cc12 (stereo not drawn) [Example 534]
			< 7	< 7	< 7	< 7				NCc1ccc(CNC(=O)c2cc(-c3c[nH]c4ccc(Br)cc34)nc3ccc(C#CCN4CCCCC4)cc23)cc1 [compound 1]
			< 7	< 7	< 7	< 7				COc1ccc(NC(=O)c2cc(-c3c[nH]c4ccc(Br)cc34)nc3ccc(C#CCN4CCCCC4)cc23)cc1 [compound 2]
			< 7	< 7	< 7	< 7				Brc1ccc2[nH]cc(-c3nc4ccc(C#CCN5CCCCC5)cc4c4c3CCO4)c2c1 [compound 8]
			> 25	< 25	< 7	< 7				CC(C)CNC(=O)c1cc(-c2c[nH]c3ccc(Br)cc23)nc2ccc(C#CCN3CCCCC3)cc12 [compound 9]
							< 7	< 7	< 7	NCc1ccc(CNC(=O)c2cc(-c3c[nH]c4ccc(Br)cc34)nc3ccc(I)cc23)cc1 [compound 53]

Second part, the molecule before the results:

SMILES	MIC ([1]; about 16 hours) [µg/mL]	MIC ([2]; about 16 hours) [µg/mL]	MIC ([3]; about 16 hours) [µg/mL]	MIC [4] [µg/mL]	MIC [5] [µg/mL]	MIC [6] [µg/mL]	MIC [7] [µg/mL]	MIC ([1]; overnight (about 16 hours)) [µg/mL]	MIC ([2]; overnight (about 16 hours)) [µg/mL]	MIC ([3]; overnight (about 16 hours)) [µg/mL]
NCCNC(=O)c1cc(-c2c[nH]c3ccc(Br)cc23)nc2cc(Cl)c(C#CCN3CC=CCC3)cc12 [Example 529]	< 7	< 7	< 7							
NCCNC(=O)c1cc(-c2c[nH]c3ccc(Br)cc23)nc2cc(Cl)c(C#CCNCCc3ccccc3)cc12 [Example 530]	< 7	< 7	< 7							
Cc1cc2ccccc2nc1-c1c[nH]c2ccc(Cl)cc12 [Example 531]	< 7	< 7	< 7							
NCC(O)CNC(=O)c1cc(-c2c[nH]c3ccc(Br)cc23)nc2cc(F)ccc12 (stereo not drawn) [Example 532]	< 7	< 7	< 7							
NCC(O)CNC(=O)c1cc(-c2c[nH]c3ccc(Br)cc23)nc2cc(Cl)cc(Cl)c12 (stereo not drawn) [Example 533]	< 7	< 7	< 7							
COC(=O)c1cc(-c2c[nH]c3ccc(Br)cc23)nc2cc(F)ccc12 [compound 3]				< 7	< 7	< 7	< 7			
NCCNC(=O)c1cc(-c2c[nH]c3ccc(Br)cc23)nc2cc(Cl)c(C#CCN3CCCCC3)cc12 [compound 4]				< 7	< 7	< 7	< 7			
COc1ccc2nc(-c3c[nH]c4ccc(Cl)cc34)ccc2c1 [compound 5]				< 7	< 7	< 7	< 7			
OCc1cc(-c2c[nH]c3ccc(Br)cc23)nc2cc(F)ccc12 [compound 6]				< 7	< 7	< 7	< 7			
NCc1cc(-c2c[nH]c3ccc(Br)cc23)nc2cc(Cl)ccc12 [compound 7]				< 7	< 7	< 7	< 7			
NCc1ccc(CNC(=O)c2cc(-c3c[nH]c4ccc(Br)cc34)nc3ccccc23)cc1 [compound 9]								< 7	< 7	< 7
